From patent publication US20250111889A1, “DE NOVO DESIGNED MACROCYCLIC OLIGOAMIDES” (UNIVERSITY OF WASHINGTON, priority 2022, published 2025)
Where a SMILES comes first, the peptide text is derived from it. Bridges are numbered along the chain shown (N, C = ends). [ ]: non-standard residue; d: D form. Trp(6-Cl) = N[C@@H](Cc1c[nH]c2cc(Cl)ccc12)C(=O)O; NMePhe(2,4-Me2) = CN[C@@H](Cc1ccc(C)cc1C)C(=O)O; dNMePhe(2,4-Me2) = CN[C@H](Cc1ccc(C)cc1C)C(=O)O; NMePhe(2-Me) = CN[C@@H](Cc1ccccc1C)C(=O)O; NMeNva = CCC[C@H](NC)C(=O)O

target: T1, SARS-CoV-2 main protease (Severe acute respiratory syndrome coronavirus 2, UniProt P0DTD1); experiment: SARS-CoV-2 main protease assay (fluorescence time-course); assay type: biochemical; conditions: 10-dose singlet, 3-fold serial dilution starting at 200 uM; increase in fluorescence signal
T1 construct: SARS-CoV-2 main protease
Description: SARS-CoV-2 main protease: The compounds were tested in 10-dose IC50 singlet with a 3-fold serial dilution starting at 200 uM. The protease activities were monitored as a time-course measurement of the increase in fluorescence signal.

Going from O=C1C[C@H](Cc2c(F)c(F)c(F)c(F)c2F)NC(=O)[C@H](Cc2cccnc2)NC(=O)[C@H](Cc2cccc(C(F)(F)F)c2)NC(=O)Cc2ccccc2N1 [Compound 131] to Cc1ccccc1C[C@@H]1NC(=O)Cc2ccccc2NC(=O)C[C@H](Cc2c(F)c(F)c(F)c(F)c2F)NC(=O)[C@H](Cc2cccnc2)NC1=O [Compound 139], the IC50 falls from 4.07 µM to 2.37 µM (1.7-fold).

O=C1C[C@H](Cc2ccccc2Cl)NC(=O)[C@H](Cc2cccnc2)NC(=O)[C@H](Cc2cccc(Cl)c2)NC(=O)Cc2ccccc2N1 [Compound 132] and O=C1C[C@H](Cc2ccccc2Cl)NC(=O)[C@H](Cc2cccnc2)NC(=O)[C@H](Cc2cccc(C(F)(F)F)c2)NC(=O)Cc2ccccc2N1 [Compound 144] are within 1.5-fold of each other in IC50: 1.25 µM for the first, 1.26 µM for the second.

First: Cc1ccccc1C[C@@H]1NC(=O)Cc2ccccc2NC(=O)C[C@H](Cc2ccccc2Cl)NC(=O)[C@H](Cc2cccnc2)NC1=O [Compound 133]
Second: Cc1ccccc1C[C@@H]1NC(=O)Cc2ccccc2NC(=O)C[C@H](Cc2ccccc2)NC(=O)[C@H](Cc2cccnc2)NC1=O [Compound 218]
The IC50 of the first is 21-fold lower: 0.844 µM for the first, 17.8 µM for the second.

Going from O=C1C[C@H](Cc2ccc(Br)cc2)NC(=O)[C@H](Cc2cccnc2)NC(=O)[C@H](Cc2cccc(Cl)c2)NC(=O)Cc2ccccc2N1 [Compound 134] to O=C1C[C@H](Cc2ccc(F)cc2)NC(=O)[C@H](Cc2cccnc2)NC(=O)[C@H](Cc2cccc(Cl)c2)NC(=O)Cc2ccccc2N1 [Compound 141], the IC50 rises from 1.22 µM to 1.84 µM (1.5-fold). The first is the more potent here.

Cc1cccc(C[C@H]2CC(=O)Nc3ccccc3CC(=O)N[C@@H](Cc3ccccc3C)C(=O)N[C@@H](Cc3cccnc3)C(=O)N2)c1 [Compound 135] and Cc1ccccc1C[C@@H]1NC(=O)Cc2ccccc2NC(=O)C[C@H](Cc2ccc(Cl)c(Cl)c2)NC(=O)[C@H](Cc2cccnc2)NC1=O [Compound 142] are within 1.5-fold of each other in IC50: 1.47 µM for the first, 1.89 µM for the second.

O=C1C[C@H](Cc2ccc(Cl)c(Cl)c2)NC(=O)[C@H](Cc2cccnc2)NC(=O)[C@H](Cc2cccc(C(F)(F)F)c2)NC(=O)Cc2ccccc2N1 [Compound 136] and Cc1cccc(C[C@H]2CC(=O)Nc3ccccc3CC(=O)N[C@@H](Cc3cccc(C(F)(F)F)c3)C(=O)N[C@@H](Cc3cccnc3)C(=O)N2)c1 [Compound 138] are within 1.5-fold of each other in IC50: 1.47 µM for the first, 2.14 µM for the second.

Compared with O=C1C[C@H](Cc2ccc(Br)cc2)NC(=O)[C@H](Cc2cccnc2)NC(=O)[C@H](Cc2cccc(C(F)(F)F)c2)NC(=O)Cc2ccccc2N1 [Compound 137], O=C1C[C@H](Cc2cccc(Cl)c2)NC(=O)[C@H](Cc2cccnc2)NC(=O)[C@H](Cc2cccc(Cl)c2)NC(=O)Cc2ccccc2N1 [Compound 143] is 2.1-fold higher in IC50: 1.27 µM for the first, 2.65 µM for the second. The first is the more potent here.

With Cc1ccccc1C[C@@H]1NC(=O)Cc2ccccc2NC(=O)C[C@H](Cc2cc(F)c(F)cc2F)NC(=O)[C@H](Cc2cccnc2)NC1=O [Compound 140] the IC50 was 1.53 µM.

target: T2, MDM2 (Homo sapiens, UniProt Q00987); experiment: MDM2 assay (commercial alphalisa kit, PerkinElmer AL3168C); assay type: binding; conditions: alphalisa kit per manufacturer's instructions; quantity not given
T2 construct: purchased PerkinElmer AL3168C
Description: MDM2: The assay was performed using a commercially available alphalisa assay kit from PerkinElmer (part number AL3168C) following the manufacturer's instructions.

T2 sequence (Q00987 whole entry): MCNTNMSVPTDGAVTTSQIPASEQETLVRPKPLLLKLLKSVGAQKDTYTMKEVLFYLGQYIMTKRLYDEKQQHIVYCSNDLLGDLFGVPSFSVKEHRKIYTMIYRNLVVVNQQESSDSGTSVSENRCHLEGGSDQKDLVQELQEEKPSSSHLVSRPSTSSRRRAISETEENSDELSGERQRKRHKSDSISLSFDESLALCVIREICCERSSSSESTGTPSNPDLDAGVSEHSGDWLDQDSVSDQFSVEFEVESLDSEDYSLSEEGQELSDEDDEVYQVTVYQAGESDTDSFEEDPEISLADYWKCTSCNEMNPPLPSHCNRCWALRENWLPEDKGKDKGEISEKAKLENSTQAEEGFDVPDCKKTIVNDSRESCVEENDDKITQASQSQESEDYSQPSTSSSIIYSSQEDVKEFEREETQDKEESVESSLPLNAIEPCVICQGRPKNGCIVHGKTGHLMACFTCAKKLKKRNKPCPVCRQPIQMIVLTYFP

Compared with CCC[C@H]1C(=O)N[C@@H](Cc2c[nH]c3cc(Cl)ccc23)C(=O)N(C)[C@@H](Cc2ccc(C)cc2C)C(=O)N[C@H](C(N)=O)CSCC(=O)N1C [Compound 32] ({CH2CO}-[NMeNva][Trp(6-Cl)][NMePhe(2,4-Me2)]C-NH2; thioether N-4), Cc1ccc(C[C@@H]2C(=O)N[C@@H](Cc3c[nH]c4cc(Cl)ccc34)C(=O)N(C)[C@@H](Cc3ccccc3C)C(=O)N[C@H](C(N)=O)CSCC(=O)N2C)c(C)c1 [Compound 35] ({CH2CO}-[dNMePhe(2,4-Me2)][Trp(6-Cl)][NMePhe(2-Me)]C-NH2; thioether N-4) is 5-fold lower in IC50: 100 µM for the first, 20 µM for the second.

target: T3, MCL-1 (Homo sapiens, UniProt Q07820); experiment: MCL-1 assay (HTRF, Anti-GST-Tb); assay type: binding; conditions: 10-dose singlet, 3-fold serial dilution starting at 200 uM; HTRF signal after 60 min
T3 construct: GST
Description: MCL-1: The compounds were tested in 10-dose IC50 singlet with a 3-fold serial dilution starting at 200 uM. Compounds in DMSO were added to enzyme solution by using Acoustic Technology. Compounds were incubated with enzyme for 10 min. at room temperature. Respective compounds were then added, and the mixture incubated for another 10 min. Finally, Anti-GST-Tb was added. After 60 min incubation, the HTRF signal was measured.

T3 sequence (Q07820 whole entry, species assumed): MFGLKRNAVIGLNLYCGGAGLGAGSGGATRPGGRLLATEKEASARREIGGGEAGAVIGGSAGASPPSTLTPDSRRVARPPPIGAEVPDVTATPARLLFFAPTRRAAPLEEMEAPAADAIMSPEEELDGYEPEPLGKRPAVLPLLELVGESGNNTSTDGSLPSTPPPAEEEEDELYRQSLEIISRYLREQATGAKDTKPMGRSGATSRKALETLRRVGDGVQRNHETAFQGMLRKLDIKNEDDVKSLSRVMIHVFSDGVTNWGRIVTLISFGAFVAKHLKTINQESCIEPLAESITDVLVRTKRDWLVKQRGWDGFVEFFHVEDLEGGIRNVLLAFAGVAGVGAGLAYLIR

First: Cc1ccccc1CN1CC(=O)N[C@H](C(C)(C)C)C(=O)NCc2cccc(c2)CC(=O)N[C@H](Cc2ccc(Cl)c(Cl)c2)CC1=O [Compound 11]
Second: COc1cccc(CCN2CC(=O)N[C@@H](C(C)C)CC(=O)NCc3cccc(c3)CC(=O)N[C@@H](Cc3ccc(Cl)c(Cl)c3)C2=O)c1 [Compound 29]
The IC50 of the first is 5-fold lower: 4.58 µM for the first, 22.8 µM for the second. The first is the more potent here.

Going from COc1cc(CN2CC(=O)NCc3ccccc3C(=O)N[C@@H](Cc3ccc(Cl)c(Cl)c3)C(=O)N(CCc3ccc(F)cc3)CC2=O)cc(OC)c1 [Compound 16] to CCOCCN1CC(=O)NCc2ccccc2C(=O)N[C@@H](Cc2ccc(Cl)c(Cl)c2)C(=O)N(CCc2ccc(F)cc2)CC1=O [Compound 19], the IC50 rises from 13.5 µM to 40.6 µM (3-fold). The first is the more potent here.

First: COc1cccc(CCN2CC(=O)N[C@H]3CC[C@H](CC3)CC(=O)N(CCc3ccc(C(F)(F)F)cc3)CC(=O)N(Cc3ccc(Cl)c(Cl)c3)CC2=O)c1 [Compound 18]
Second: CN1C(=O)CN(Cc2cccc(Br)c2)C(=O)CCCCNC(=O)[C@@H](Cc2ccc(C(C)(C)C)cc2)NC(=O)[C@@H]1Cc1ccc(Cl)c(Cl)c1 [Compound 121]
The IC50 of the first is 1.8-fold lower: 28.2 µM for the first, 50.1 µM for the second.

First: Cc1ccc(C[C@@H]2NC(=O)CCCCNC(=O)CN(CCOc3c(C)cccc3C)C(=O)[C@@H](Cc3ccc(Cl)c(Cl)c3)N(C)C2=O)cc1 [Compound 119]
Second: CCC(CC)[C@H]1NC(=O)CN(Cc2ccc(Cl)c(Cl)c2)C(=O)[C@H](Cc2ccc(C(C)(C)C)cc2)NC(=O)CCCCNC1=O [Compound 122]
The IC50 of the first is 1.5-fold higher: 18.9 µM for the first, 12.3 µM for the second. The second is the more potent here.

test system: not listed separately; experiment: in vitro; assay type: in vitro ADME; conditions: PAMPA
From the text: We measured the passive membrane diffusion of all 29 macrocycles designed with the two approaches using the parallel artificial membrane permeability assay (PAMPA) (FIGS. 3, 4, and 16). Almost all of the macrocycles were quite membrane permeable: 16 of the 29 had log(Papp)'s greater than −6, and only three were not detected in the acceptor well. Under the same conditions, the small molecule drug propranolol achieved log(Papp) of −5.36 (FIG. 16). As expected, designs with exposed polar groups, particularly side chain hydroxyls and primary amides, had lower permeabilities. Overall, the hydrogen-bond containing designs were more permeable than the torsionally-optimized based designs, likely due to fewer exposed backbone polar groups.
PAMPA: Stock solutions of each peptide were prepared gravimetrically by dissolving ca. 1-3 mg of peptide in either 100% MeOH or 100% DMSO to produce ca. 1-10 mM peptide solutions. These stock solutions were stored at 4° C. when not in use. Samples for PAMPA experiments and calibration curves were prepared by diluting these stock solutions to produce 1.2 mL of 20 uM peptide in PBS supplemented with either 5% DMSO, or 10% MeOH. […] The concentration of each peptide in the donor and acceptor wells was quantified by LCMS after approximately 19 hours. […]

CC(C)NCC(O)COc1cccc2ccccc12 (centres unmarked) [propranolol] showed a Papp at 20 uM of 43.7 nm/s.
